We go through 15 compounds from ChEMBL document CHEMBL1143165, “N-[omega-[4-(2-methoxyphenyl)-1-piperazinyl]alkyl]-2-quinolinamines as high-affinity fluorescent 5-HT1A receptor ligands” (J Med Chem, 2008).

Molecules are shown by their SMILES. Activity calls are given as the source filed them. No cut-off for these calls is given here.

The target in test [1] is T1, 5-hydroxytryptamine receptor 1A (Homo sapiens, UniProt P08908).
T1 sequence (P08908 whole entry): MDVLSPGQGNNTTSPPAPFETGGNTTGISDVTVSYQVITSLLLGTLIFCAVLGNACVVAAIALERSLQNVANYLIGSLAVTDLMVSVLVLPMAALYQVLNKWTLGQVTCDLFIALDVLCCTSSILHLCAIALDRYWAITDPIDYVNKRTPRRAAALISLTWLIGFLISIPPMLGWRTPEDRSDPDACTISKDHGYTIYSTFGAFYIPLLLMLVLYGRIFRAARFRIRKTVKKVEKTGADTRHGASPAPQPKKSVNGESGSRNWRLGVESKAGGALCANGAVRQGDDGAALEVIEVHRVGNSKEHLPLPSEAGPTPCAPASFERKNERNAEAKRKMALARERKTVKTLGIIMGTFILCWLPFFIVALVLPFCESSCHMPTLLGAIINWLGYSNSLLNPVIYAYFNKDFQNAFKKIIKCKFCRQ
Put plainly: Displacement of [3H]8-OH-DPAT from human 5HT1A receptor expressed in HEK293 cells after 120 mins. It counts as cell-based.

A short description of test [2]: Agonist activity at 5HT1A receptor in guinea pig ileum assessed as inhibition of electrically-stimulated muscle contraction. It counts as functional, tissue-based. Particulars: Cavia porcellus.
Test [3] is described as follows: Agonist activity at 5HT1A receptor in guinea pig ileum assessed as inhibition of electrically-stimulated muscle contraction relative to baseline. Also noted: scale not given: the % may be the effect or the level left. It counts as functional, Cavia porcellus.
For a further test, the species on record is Cavia porcellus. In words: Reversal of agonist activity at 5HT1A receptor in guinea pig in presence of 5HT1A antagonist WAY-100635. It counts as functional.

`COc1ccccc1N1CCN(CCCCCNc2ccc3ccccc3n2)CC1` yielded a Ki in test [1] of 0.03 nM.

In the case of `COc1ccccc1N1CCN(CCNc2ccc3ccccc3n2)CC1`, the Ki in test [1] was found to be 33 nM.

In test [1], `COc1ccccc1N1CCN(CCNc2ccc3cc([N+](=O)[O-])ccc3n2)CC1` displayed an inhibitory constant (Ki) of 14.2 nM.

Take `COc1ccc2ccc(NCCCCN3CCN(c4ccccc4OC)CC3)nc2c1`: the Ki in test [1] came to 4.6 nM.

In test [1], `COc1ccc2ccc(NCCCCCN3CCN(c4ccccc4OC)CC3)nc2c1` came in with an inhibition constant Ki of 0.5 nM.

Consider `COc1ccc2ccc(NCCN3CCN(c4ccccc4OC)CC3)nc2c1`, for which the inhibition constant (Ki) in test [1] was found to be 2.1 nM.

Compound `COc1ccccc1N1CCN(CCCCNc2ccc3cc(N)ccc3n2)CC1` had an inhibition constant (Ki) in test [1] of 0.38 nM. Moreover, the 50% effective concentration (EC50) in test [2] was found to be 62100 nM. The Activity in test [3] came out at 81%.

Compound `COc1ccc2ccc(NCCCN3CCN(c4ccccc4OC)CC3)nc2c1` registered a Ki in test [1] of 0.2 nM.

Take `COc1ccc2nc(NCCCCCN3CCN(c4ccccc4OC)CC3)ccc2c1`: the affinity in test [1], expressed as Ki, was 2.6 nM.

For `COc1ccc2nc(NCCCCN3CCN(c4ccccc4OC)CC3)ccc2c1`, the Ki in test [1] stood at 0.2 nM. Further, in test [2], the EC50 turned out to be 34400 nM. For the same compound, the result in the test filed under Cavia porcellus was Active.

In the case of `COc1ccc2nc(NCCCN3CCN(c4ccccc4OC)CC3)ccc2c1`, in test [1], the inhibition constant Ki was determined as 22 nM.

In the case of `COc1ccccc1N1CCN(CCCNc2ccc3ccccc3n2)CC1`, the inhibition constant Ki in test [1] is 13 nM.

In turn, `COc1ccc2nc(NCCN3CCN(c4ccccc4OC)CC3)ccc2c1` gave an inhibition constant (Ki) in test [1] of 28 nM.

In turn, `COc1ccccc1N1CCN(CCCCNc2ccc3cc(C)ccc3n2)CC1` came in with a Ki in test [1] of 0.54 nM.

In test [1], `COc1ccccc1N1CCN(CCCCNc2ccc3ccccc3n2)CC1` registered an inhibition constant Ki of 9.7 nM.

The Ki is the equilibrium dissociation constant of an inhibitor or competing ligand from its target. The EC50 is the concentration needed to bring the measured effect to its halfway point.
